How the values were obtained:
Type in all cases: cell-based
B. cereus [1] = assay: Broth microdilution MIC/MBC; conditions: for MBC: 99.9% killing; for MIC: 24 h at 37° C.
Experimental: (§1) Broth microdilution tests were performed according to NCCLS guidelines. Serial two-fold dilutions of each imidazolium salt (from an original working solution which had been 0.22 μm sterile filtered) in Mueller-Hinton Broth (MHB) (100 μl) were prepared in 96-well micro-titre plates over the range 0.0000625-1% w/v. The inoculum to be tested was prepared by adjusting the turbidity of an actively overnight growing broth culture in MHB to an optical density at 550 nm equivalent to 1×10^8 CFU/ml. The suspension was further diluted to provide a final inoculum density of 2×10^5 CFU/ml in MHB as verified by total viable count. The inoculum to be tested (100 μl, 2×10^5 CFU ml^−1) was added to each well of the microdilution trays which were incubated aerobically for 24 h at 37° C. Positive and negative growth controls were included in every assay (6 replicates). After determining the MICs, minimum bactericidal concentrations (MBCs) were determined by spreading 20 μl of suspension from wells showing no growth onto MHA plates, which were then incubated for 24 h and examined for 99.9% killing.

C. tropicalis NCTC 7393 [2] = assay: Broth microdilution MIC/MBC; conditions: for MBC: C. tropicalis NCTC 7393, 99.9% killing; for MIC: C. tropicalis NCTC 7393, 24 h at 37° C.
Experimental: as §1

E-MRSA 15 [3] = assay: Broth microdilution MIC/MBC; conditions: for MBC: E-MRSA 15, 99.9% killing; for MIC: E-MRSA 15, 24 h at 37° C.
Experimental: as §1

E. coli NCTC 8196 [4] = assay: Broth microdilution MIC/MBC; conditions: for MBC: E. coli NCTC 8196, 99.9% killing; for MIC: E. coli NCTC 8196, 24 h at 37° C.
Experimental: as §1

K. aerogenes NCTC 7427 [5] = assay: Broth microdilution MIC/MBC; conditions: for MBC: K. aerogenes NCTC 7427, 99.9% killing; for MIC: K. aerogenes NCTC 7427, 24 h at 37° C.
Experimental: as §1

P. aeruginosa PA01 [6] = assay: Broth microdilution MIC/MBC; conditions: for MBC: P. aeruginosa PA01, 99.9% killing; for MIC: P. aeruginosa PA01, 24 h at 37° C., read-out: MIC
Experimental: as §1

P. mirabilis NCTC 12442 [7] = assay: Broth microdilution MIC/MBC; conditions: for MBC: P. mirabilis NCTC 12442, 99.9% killing; for MIC: P. mirabilis NCTC 12442, 24 h at 37° C.
Experimental: as §1

S. aureus ATCC 29213 = assay: Broth microdilution MIC/MBC; conditions: for MBC: S. aureus ATCC 29213, 99.9% killing; for MIC: S. aureus ATCC 29213, 24 h at 37° C.
Experimental: as §1

[8] = tested on: S. epidermidis ATCC 12228; assay: Broth microdilution MIC/MBC; conditions: for MBC: S. epidermidis ATCC 12228, 99.9% killing; for MIC: S. epidermidis ATCC 12228, 24 h at 37° C.
Experimental: as §1

[9] = tested on: S. epidermidis ATCC 35984; assay: Broth microdilution MIC/MBC; conditions: for MBC: S. epidermidis ATCC 35984, 99.9% killing; for MIC: S. epidermidis ATCC 35984, 24 h at 37° C.
Experimental: as §1

S. aureus PIII [10] = assay: Broth microdilution MIC
Experimental: as §1

B. cereus [11] = assay: Biofilm assay (Calgary Biofilm Device), MBEC; conditions: B. cereus 24 h biofilm, 24 h challenge
Experimental: (§2) Biofilms of each test organism were grown in the Calgary Biofilm Device (commercially available as the MBEC Assay™ for Physiology & Genetics, Innovotech Inc., Edmonton, Alberta, Canada). The device, a micro-titre plated based assay, consists of two parts; a microtitre plate containing the inoculated test medium and a polystyrene lid with 96 identical pegs on which the microbial biofilm forms under gyrorotary incubation. The biofilm assay was conducted according to the MBEC™ assay protocol as supplied by the manufacturer, with slight modifications. Inocula of each test organism were prepared in MHB as described above and adjusted to provide a final inoculum density of ˜10^7 CFU ml^−1 (as confirmed by viable count). 150 μl of the inoculated media was transferred to each well of the 96-well microtitre plate and the assay plate lid, bearing 96 pegs was placed into the microtitre plate. The MBEC assay plates were placed in a gyrorotary incubator (37° C., 95% relative humidity) for 24 h to permit growth and comparison of 24 h biofilms of each test strain. Positive and negative growth controls were included in each plate (6 replicates). Initial and 24 h planktonic viable counts were measured, as were 24 h biofilm counts, expressed as CFU peg^−1, according to manufacturers instructions. After 24 h, the peg lid of the MBEC assay plate was gently rinsed three times. After rinsing, the peg lid of the MBEC assay was transferred to a ‘challenge’ plate. Serial dilutions of each imidazolium salt were prepared in 200 μl of MHB containing various concentrations of IL in each well. Positive growth control and sterility control were included in each assay plate. […] Biofilms were dislodged into recovery media by sonication for 5 minutes and the peg lid discarded. The recovery plate is incubated overnight and visually checked after 24 h for turbidity. In addition, optical density measurements for each plate were recorded at 550 nm. Clear wells were taken as evidence of biofilm eradication and the MBEC value was assigned as the lowest concentration at which no growth was observed after 24 h incubation. Plates were incubated for a further 24 h to confirm biofilm eradication concentrations.

C. tropicalis NCTC 7393 [12] = assay: Biofilm assay (Calgary Biofilm Device), MBEC; conditions: C. tropicalis NCTC 7393 24 h biofilm, 24 h challenge
Experimental: as §2

E-MRSA 15 [13] = assay: Biofilm assay (Calgary Biofilm Device), MBEC; conditions: E-MRSA 15 24 h biofilm, 24 h challenge
Experimental: as §2

E. coli NCTC 8196 [14] = assay: Biofilm assay (Calgary Biofilm Device), MBEC; conditions: E. coli NCTC 8196 24 h biofilm, 24 h challenge
Experimental: as §2

K. aerogenes NCTC 7427 [15] = assay: Biofilm assay (Calgary Biofilm Device), MBEC; conditions: K. aerogenes NCTC 7427 24 h biofilm, 24 h challenge
Experimental: as §2

P. aeruginosa PA01 [16] = assay: Biofilm assay (Calgary Biofilm Device), MBEC; conditions: P. aeruginosa PA01 24 h biofilm, 24 h challenge
Experimental: as §2

P. mirabilis NCTC 12442 [17] = assay: Biofilm assay (Calgary Biofilm Device), MBEC; conditions: P. mirabilis NCTC 12442 24 h biofilm, 24 h challenge
Experimental: as §2

S. aureus PIII [18] = assay: Biofilm assay (Calgary Biofilm Device), MBEC; conditions: S. aureus PIII 24 h biofilm, 24 h challenge
Experimental: as §2

[19] = tested on: S. epidermidis ATCC 35984; assay: Biofilm assay (Calgary Biofilm Device), MBEC; conditions: S. epidermidis ATCC 35984 24 h biofilm, 24 h challenge
Experimental: as §2

Row | Structure (SMILES) | MBC (B. cereus [1]) | MIC (B. cereus [1]) | MBC (C. tropicalis NCTC 7393 [2]) | MIC (C. tropicalis NCTC 7393 [2]) | MBC (E-MRSA 15 [3]) | MIC (E-MRSA 15 [3]) | MBC (E. coli NCTC 8196 [4]) | MIC (E. coli NCTC 8196 [4]) | MBC (K. aerogenes NCTC 7427 [5]) | MIC (K. aerogenes NCTC 7427 [5]) | MBC (P. aeruginosa PA01 [6]) | MIC (P. aeruginosa PA01 [6]) | MBC (P. mirabilis NCTC 12442 [7]) | MIC (P. mirabilis NCTC 12442 [7]) | MBC (S. aureus ATCC 29213) | MIC (S. aureus ATCC 29213) | MBC [8] | MIC [8] | MBC [9] | MIC [9] | other results
1 | CCCCCCCC[n+]1cccc2ccccc21.[Br-] [1-alkyl-3-quinolinium bromides 8] | 726 µM | 484.78 µM | 363 µM | 242 µM | 484 µM | 242 µM | 242 µM | 121.2 µM | 242 µM | 60 µM | 605 µM | 484.78 µM | 363 µM | 242 µM | 484 µM | 242 µM | 242 µM | 121.2 µM | 242 µM | 121.2 µM | MIC (S. aureus PIII [10]): 242 µM; MBEC (B. cereus [11]): 7826 µM; MBEC (C. tropicalis NCTC 7393 [12]): 7826 µM; MBEC (E-MRSA 15 [13]): 7826 µM; MBEC (E. coli NCTC 8196 [14]): 8315 µM; MBEC (K. aerogenes NCTC 7427 [15]): 9782 µM; MBEC (P. aeruginosa PA01 [16]): 8315 µM; MBEC (P. mirabilis NCTC 12442 [17]): 7826 µM; MBEC (S. aureus PIII [18]): 7826 µM; MBEC [19]: 3913 µM
2 | CCCCCCCCCC[n+]1cccc2ccccc21.[Br-] [1-alkyl-3-quinolinium bromides 10] | 278.7 µM | 223 µM | 111.48 µM | 55.74 µM | 111.48 µM | 55.74 µM | 167.22 µM | 55.74 µM | 167.22 µM | 55.74 µM | 446 µM | 223 µM | 167.22 µM | 111.5 µM | 111.48 µM | 111.5 µM | 111.48 µM | 55.74 µM | 111.48 µM | 55.74 µM | MIC (S. aureus PIII [10]): 111.5 µM; MBEC (B. cereus [11]): 3584 µM; MBEC (C. tropicalis NCTC 7393 [12]): 1792 µM; MBEC (E-MRSA 15 [13]): 1792 µM; MBEC (E. coli NCTC 8196 [14]): 3584 µM; MBEC (K. aerogenes NCTC 7427 [15]): 4568 µM; MBEC (P. aeruginosa PA01 [16]): 1792 µM; MBEC (P. mirabilis NCTC 12442 [17]): 3584 µM; MBEC (S. aureus PIII [18]): 1956 µM; MBEC [19]: 896 µM

From patent publication US20110144079A1, “ANTIMICROBIAL SYSTEM” (priority 2008, published 2011)
